Assay results: patent US8097605B2, “Combination of anticholinergics and inhibitors of phosphodiesterase type 4 for the treatment of respiratory disease” (Meda Pharma GmbH & Co. KG, priority 2004, dated 2012)

How the values were obtained:
[1] = system: human peripheral blood mononuclear cells (PBMCs); assay: LPS-induced TNFα release from human PBMCs/monocytes (sandwich ELISA); type: cell-based; conditions: LPS 1 μg/ml
Protocol: The influence of R,R-glycopyrrolate in combination with PDE4 inhibitors on TNF secretion was investigated by using human peripheral blood mononuclear cells (PBMCs). The study was approved by our institutional Ethics Committee according to the International Declarations of Helsinki and Tokyo.
PBMCs were isolated from heparinized blood samples of healthy donors by density gradient centrifugation. An equal volume of Hanks buffer (Life Technologies, Heidelberg, Germany) is added to heparinized whole blood samples. 15 ml Histopaque-1077 (Sigma, Deisenhofen, Germany) are overlayed with a maximum of 40 ml of blood/Hanks mixture were centrifuged for 30 min at room temperature (2000 rpm). A visible band containing PBMCs is transferred to a fresh tube and washed twice with Hanks-buffer. Finally cells are seeded in RPMI 1640 Medium (Life Technologies, Heidelberg, Germany) with Glutamax I (Gibco BRL, Eggenstein) and 10% fetal calf serum (Boehringer Mannheim, Penzberg, Germany). After isolated, PBMCs were cultured in RPMI 1640 medium supplemented with 10% fetal calf serum (FCS) at 37° C. 5% CO2 overnight. […] by adherence method, non-adherent cells were removed by changing the medium.
Cells are re-suspended at 10^6 cells/ml and incubated in 500 μl volumes in 24-well tissue culture plates (Falcon Becton Dickinson Labware) at 37° C., 5% CO2. After pre-incubation with test substances (0.5 μl/500 μl medium) for 30 min, cells were stimulated with lipopolysaccharide (LPS) (1 μg/ml). […]
Cytokine measurements in culture supernatants are done by sandwich ELISA using matched antibody pairs (Pharmingen, Heidelberg, Germany). […] Plates are read at 450 nm (reference 570 nm) in a microplate reader (Dynatech). The results are expressed as a percentage of the control level of cytokines production by cells stimulated in the absence of the compound.

[2] = dog, in vivo, 15 mg/kg; cited from earlier work
[3] = system: allergen-induced airway eosinophilia; conditions: Brown Norway rats, administered intrapulmonary; cited from earlier work
[4] = molecular target: M3 muscarinic receptors (Homo sapiens, UniProt P20309); conditions: kinetics studies; cited from earlier work
[5] = system: M1-M3 receptors; conditions: cited from earlier work

Chain of M3 muscarinic receptors (P20309 whole entry): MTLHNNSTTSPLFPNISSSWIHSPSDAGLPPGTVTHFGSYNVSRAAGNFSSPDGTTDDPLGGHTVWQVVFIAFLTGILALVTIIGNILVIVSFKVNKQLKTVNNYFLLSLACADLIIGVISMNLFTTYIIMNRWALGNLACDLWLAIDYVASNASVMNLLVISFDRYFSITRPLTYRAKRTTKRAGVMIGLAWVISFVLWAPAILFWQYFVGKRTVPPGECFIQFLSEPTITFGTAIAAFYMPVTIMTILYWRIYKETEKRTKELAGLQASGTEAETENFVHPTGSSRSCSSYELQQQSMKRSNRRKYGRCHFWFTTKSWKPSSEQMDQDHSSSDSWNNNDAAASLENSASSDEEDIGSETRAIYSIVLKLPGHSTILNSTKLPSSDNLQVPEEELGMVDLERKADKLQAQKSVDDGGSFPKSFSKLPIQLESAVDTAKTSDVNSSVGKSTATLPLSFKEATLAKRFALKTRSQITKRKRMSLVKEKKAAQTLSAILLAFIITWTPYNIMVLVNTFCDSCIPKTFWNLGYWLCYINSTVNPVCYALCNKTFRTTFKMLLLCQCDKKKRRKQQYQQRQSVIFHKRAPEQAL

## C[N+]1(C)CC[C@@H](OC(=O)[C@](O)(c2ccccc2)C2CCCC2)C1.[Br-] [R,R-glycopyrrolate]
[1]; compound alone, up to 10 μmol/l
  influence on LPS-induced TNFα release: did not influence

## O=C(Nc1c(Cl)cncc1Cl)C(=O)c1cn(Cc2ccc(F)cc2)c2ccc(O)cc12 [AWD 12-281]
[2]
  emesis: no emesis was induced
[3]
  ID50 suppression of allergen-induced airway eosinophilia: 7 µg/kg

## C[N+]1(C)CCC(OC(=O)C(O)(c2ccccc2)C2CCCC2)C1 (racemic) [Glycopyrrolate]
[4]
  dissociation from M3 muscarinic receptors: dissociates slowly
[5]
  selectivity in binding to the M1-M3 receptors: no selectivity

## COc1ccc(C2CNC(=O)C2)cc1OC1CCCC1 (centres unmarked) [rolipram]
[1]; rolipram alone
  IC35 of TNFα release inhibition: 0.0689 ± 0.0152 µM
[1]; rolipram plus 10 μmol/l R,R-glycopyrrolate, p=0.0151
  IC35 of TNFα release inhibition with simultaneous addition of R,R-glycopyrrolate: 0.0017 ± 0.00118 µM

## C[C@H]1C[C@H]2[C@@H]3CCC4=CC(=O)C=C[C@]4(C)[C@@]3(Cl)[C@@H](O)C[C@]2(C)[C@@]1(O)C(=O)CO [beclomethasone]
[3]
  ID50 suppression of allergen-induced airway eosinophilia: 0.1 µg/kg
